# Test results as given in patent publication US20240293418A1, “COMBINATION THERAPY FOR TREATING CANCER” (Epizyme, Inc., priority 2016, published 2024).
# Assays:
# MM1.S [1] = assay: 7-day co-treatment combination model (Cell Titer Glo); conditions: for IC50: Homo sapiens, 168 h, read-out: 7-day IC50
# Protocol: (§1) Assay plates were developed for endpoint analysis using Cell Titer Glo to measure ATP content, which was used as an indicator of cell viability. DMSO concentration was kept constant throughout the assay at less than 0.2% v/v.
# (§2) Cell lines: The cell lines MI1.S and U266B1 were obtained from American Type Culture Collection (ATCC; Rockville, MD). […] All cells were maintained as instructed by the supplier and cultures were maintained at 37° C. in a humidified atmosphere and 5% CO2.
# (§3) Loewe volumes greater than 1 denoted synergy and volumes <−1 denoted antagonism.
# RPMI-8226 = assay: as above; conditions: second agent + tazemetostat, 7 day co-treatment
# Protocol: as §1, §2, §3
# MOLP-8 [2] = assay: as above; conditions: second agent + tazemetostat; for combinatorial effect by Loewe volumes: 7-day co-treatment, MOLP-8 t(11;14)
# Protocol: as §1
# (§4) All cells were maintained as instructed by the supplier and cultures were maintained at 37° C. in a humidified atmosphere and 5% CO2.
# as §3
# U266 = assay: 7 day pretreatment + 4-day co-treatment combination model (Cell Titer Glo); conditions: for IC50: Homo sapiens, U-266, 96 h, read-out: 4-day IC50
# Description: as §1
# (§5) Cell lines: The cell lines MI1.S and U266B1 were obtained from American Type Culture Collection (ATCC; Rockville, MD). The cell lines LP-1, L-363 were obtained from Deutsche Sammlung von Mikroorganismen and Zellkulturen (DSMZ; Braunschweig, Germany) and the cell line KMS-28BM was obtained from Japanese Collection of Research Bioresources Cell Bank (JCRB, Osaka Japan). All cells were maintained as instructed by the supplier and cultures were maintained at 37° C. in a humidified atmosphere and 5% CO2.
# as §3
# MOLP-8 [3] = assay: as above; conditions: second agent + tazemetostat, MOLP-8 t(11;14)
# Protocol: as §1, §4, §3
# MM1.S [4] = assay: as above; conditions: Homo sapiens, MM1.S, 96 h, read-out: 4-day IC50
# Description: as §1, §5, §3
# KMS-28-BM [5] = assay: as above; conditions: for IC50: KMS-28BM, 96 h, read-out: 4-day IC50; for combinatorial effect by Loewe volumes: KMS-28-BM t(4;14)
# Protocol: as §1, §4, §3
# LP-1 [6] = assay: 7-day co-treatment combination model (Cell Titer Glo); conditions: second agent + tazemetostat; 7-day co-treatment; LP-1 t(4;14)
# Protocol: as §1, §4, §3
# LP-1 [7] = assay: 7 day pretreatment + 4-day co-treatment combination model (Cell Titer Glo); conditions: for IC50: Homo sapiens, LP-1, 96 h, read-out: 4-day IC50; for combinatorial effect by Loewe volumes: second agent + tazemetostat, 7 day pretreatment + 4-day co-treatment, LP-1 t(4;14)
# Description: as §1, §5, §3
# L-363 = assay: as above; conditions: for IC50: Homo sapiens, L-363, 96 h, read-out: 4-day IC50
# Description: as §1, §5, §3
# KMS-28-BM [8] = assay: 7-day co-treatment combination model (Cell Titer Glo); conditions: for IC50: KMS-28BM, 168 h, read-out: 7-day IC50
# Protocol: as §1, §4, §3
# Granta-519 [9] = assay: mantle cell lymphoma 7 day co-treatment model; assay type: cell-based
# Granta-519 [10] = assay: mantle cell lymphoma 7 day pretreatment + 4-day co-treatment model (Cell Titer Glo)
# Description: Cells were then co-treated in triplicate with a second compound, 3-fold serially diluted for additional 4 days. After this time, plates were developed for endpoint analysis using Cell Titer Glo to measure ATP content, which is used as an indicator of cell viability.
# A Loewe volume greater than 1 denoted synergy. A Loewe volume between −1 and 1 denoted additivity, and a negative Loewe volume of less than −1, denoted antagonism.
# [11] = test system: Ikaros, Aiolos, IRF4 expression in RPMI-8226 cells; assay: western blot of Ikaros, Aiolos, IRF4 in RPMI-8226 cells; assay type: cell-based; conditions: single agent 31, 125 or 500 nM, 3 days
# [12] = second agent + tazemetostat, 7 day co-treatment
# [13] = second agent + tazemetostat, 7 day pretreatment + 4-day co-treatment
# [14] = second agent + tazemetostat, 7 day pretreatment + 4-day co-treatment, Granta-519
Compound,Loewe volume (RPMI-8226),IC50 (MM1.S [1]) [nM],combinatorial effect by Loewe volumes (MOLP-8 [2]),IC50 (U266) [nM],combinatorial effect by Loewe volumes (MOLP-8 [3]),IC50 (MM1.S [4]) [nM],IC50 (KMS-28-BM [5]) [nM],combinatorial effect by Loewe volumes (KMS-28-BM [5]; [13]),combinatorial effect by Loewe volumes (LP-1 [6]),IC50 (LP-1 [7]) [nM],combinatorial effect by Loewe volumes (LP-1 [7]),IC50 (L-363) [nM],IC50 (KMS-28-BM [8]) [nM],further results
Cc1nc2cccc(N)c2c(=O)n1C1CCC(=O)NC1=O (centres unmarked) [CC-122],2.29,,,,,,,,,,,,,Loewe volume (MM1.S [1]; [12]): 1.93
"Cc1[nH]c2ccccc2c1CCNCc1ccc(/C=C/C(=O)NO)cc1 [Panobinostat, panobinostat]",2.24,1.34,S (Synergy),5,A (Additive),5.8,2.5,S (Synergy),S (Synergy),3,S (Synergy),3,1.26,"Loewe volume (MOLP-8 [2]; 7 day co-treatment, MOLP-8): 2.14; combinatorial effect by Loewe volumes (U266; second agent + tazemetostat, 7 day pretreatment + 4-day co-treatment, U266 t(11;14)): S (Synergy); Loewe volume (KMS-28-BM [5]; second agent + tazemetostat, 7 day pretreatment + 4-day co-treatment, KMS-28-BM): 2.03; combinatorial effect by Loewe volumes (L-363; second agent + tazemetostat, 7 day pretreatment + 4-day co-treatment, L-363 t(20;22)): S (Synergy); combinatorial effect by Loewe volumes (KMS-28-BM [8]; second agent + tazemetostat, 7-day co-treatment, KMS-28-BM t(4;14)): S (Synergy); Loewe volume (KMS-28-BM [8]; second agent + tazemetostat, 7 day co-treatment, KMS-28-BM): 5.19"
"CC1(C)CCC(CN2CCN(c3ccc(C(=O)NS(=O)(=O)c4ccc(NCC5CCOCC5)c([N+](=O)[O-])c4)c(Oc4cnc5[nH]ccc5c4)c3)CC2)=C(c2ccc(Cl)cc2)C1 [Venetoclax, venetoclax]",,,A (Additive),,A (Additive),,,S (Synergy),S (Synergy),,S (Synergy),,,"IC50 (Granta-519 [9]; Homo sapiens, 168 h, second agent alone, 7 day co-treatment model): 41 nM; Best CI (Granta-519 [9]; [12]): 0.43; Bliss Volume (Granta-519 [9]; [12]): 1.76; HSA Volume (Granta-519 [9]; [12]): 3.06; Loewe Volume (Granta-519 [9]; [12]): 2.73; Synergy Score (Granta-519 [9]; [12]): 3.82; IC50 (Granta-519 [10]; Homo sapiens, Granta-519, read-out: Second agent IC50): 58 nM; Best CI (Granta-519 [10]; [14]): 0.09; Bliss Volume (Granta-519 [10]; [14]): 3.95; HSA Volume (Granta-519 [10]; [14]): 7.17; Loewe Volume (Granta-519 [10]; [14]): 6.72; Synergy Score (Granta-519 [10]; [14]): 7.23"
"CC(C)C[C@H](NC(=O)[C@H](Cc1ccccc1)NC(=O)c1cnccn1)B(O)O [Bortezomib, bortezomib]",,1.92,,2,,1.4,3,,,3,,5,5.22,vbliss (RPMI-8226; printed in Loewe volume column): vbliss: 0.24
"CCN(c1cc(-c2ccc(CN3CCOCC3)cc2)cc(C(=O)NCc2c(C)cc(C)[nH]c2=O)c1C)C1CCOCC1 [Tazemetostat, tazemetostat]",,,,,,,,,,,,,,"IRF4 expression, single agent [11]: reduces TRF4 expression"
